The results in this text go back to patent publication US20180010188A1, “METHOD FOR DETECTING NONSENSE-MEDIATED RNA DECAY” (The Regents of the University of California, priority 2016, published 2018).

In assay [1] the test system is Bip transcript. Briefly: Bip transcript levels as reporter of ATF6α activity. The class given is cell-based, mouse. The source says: Perk knockdown attenuated thapsigargin-induced Xpb1s (FIG. 4E) probably due to the restoration of NMD activity and because NMD inhibits IRE1α to splice Xbp1 (Oren et al. 2014. EMBO Mol Med 6: 685-701; Karam et al., 2015. EMBO Rep 16: 599-609). […] The Xbp1s level in the thapsigargin-treated siPerk cells was still 6 to 8 fold higher than in DMSO-treated cells, indicative of potent IRE1a activity. We also examined Bip transcript levels as a reporter of ATF6α activity (FIG. 4F). […] In summary, in PERK-deficient cells, thapsigargin continued to activate IREα and ATF6α but no longer inhibited NMD.
(§1) Neuro-2a (N2a) cells were maintained in N2a complete media consisting of L-glutamine-free Dulbecco's modified Eagle's medium (DMEM), 10% FBS and 1× GlutaMAX at 37° C. Thapsigargin (VWR, cat. no. 89161-410), ionomycin (Fisher Scientific, cat. no. AG-CN2-0416-M001) and ouabain octahydrate (Fisher Scientific, cat. no. 80055-364) were dissolved in DMSO and stored at −80° C. […]
Trizol (Life Technologies, cat. no. 15596-018) was directly added to the cells or mouse brain tissues to extract total RNA following the Trizol Reagent standard protocol. […] RNA concentrations were measured using a Nanodrop 2000c (Thermo Fisher). […] Relative expression (fold changes) was calculated using the ΔΔCt method. […]

The test system of assay [2] is Xbp1 splicing. Briefly: Xbp1 splicing (ER stress) by RT-PCR / Xbp1s level. In kind it is cell-based, mouse. How it is done: We investigated another consequence of thapsigargin treatment, ER stress, for its possible association with NMD inhibition. Because thapsigargin-induced NMD inhibition occurred as early as 1 hour post-treatment, we examined cellular stress levels by measuring the splicing activity of X-box binding protein 1 (Xbp1). Xbp1 splicing rapidly responds to ER stress. As a part of the unfolded protein response (UPR) triggered by ER stress, the serine/threonine protein kinase/endoribonuclease inositol-requiring enzyme 1 (IRE1α) oligomerizes and activates its ribonuclease activity through trans-autophosphorylation (Rubio et al., 2011. J Cell Biol 193: 171-184; Samali et al., 2010. Int J Cell Biol 2010: 830307; van Schadewijk et al., 2012. Cell Stress Chaperones 17: 275-279; Hetz C. 2012. Nat Rev Mol Cell Biol 13: 89-102). Activated IRE1α excises a 26-nt intron of Xbp1 mRNA, resulting in a shorter isoform (Xbp1s) that encodes a potent transcriptional activator for the expression of chaperones. RT-PCR with primers flanking the 26-nt intron detected Xbp1 splicing at 1 hour after thapsigargin treatment (FIG. 3A). […] Since IRE1α is targeted by NMD (Karam et al., 2015. EMBO Rep 16: 599-609; Oren et al. 2014. EMBO Mol Med 6: 685-701), the Xbp1 intron excision could have been due to thapsigargin-induced NMD inhibition. […] Nevertheless, feedback between these two pathways may have occurred in the later phase (see below).
as §1
Trizol (Life Technologies, cat. no. 15596-018) was directly added to the cells or mouse brain tissues to extract total RNA following the Trizol Reagent standard protocol. […] RNA concentrations were measured using a Nanodrop 2000c (Thermo Fisher). […]

The structures appear in SMILES notation.

Regarding `Cn1cc(-c2ccc3c(c2)CCN3C(=O)Cc2cccc(C(F)(F)F)c2)c2c(N)ncnc21` [GSK2606414], in assay [1] (thapsigargin plus GSK2606414), the Bip transcripts result is on record as “did not down-regulate”. Also, the “thapsigargin-induced Xbp1s” value in assay [2] (thapsigargin plus GSK2606414) is given as “attenuating”.

Take `C/C=C(/C)C(=O)O[C@H]1C(C)=C2[C@H]([C@@H]1OC(=O)CCCCCCC)[C@@](C)(OC(C)=O)C[C@H](OC(=O)CCC)[C@@]1(O)[C@H]2OC(=O)[C@@]1(C)O` [thapsigargin]: in assay [1] (thapsigargin treatment, maintained with siPerk), the Bip transcript levels result is “significantly boosted”. Further, the “time at which Xbp1 splicing was detected” value in assay [2] (0.2 μM thapsigargin, N2a cells) was determined as 1 h. Moreover, the “concentration at which Xbp1 intron excision occurred” value in assay [2] (N2a cells, 5 hours post-treatment) was 0.01 µM.
